Source: patent EP4342890A1, “PLATFORM AND SCAFFOLD FOR FAP TARGETING AGENTS” (Erasmus University Rotterdam Medical Center, priority 2022, dated 2024)

Experiments:
FAP = molecular target: T1, FAP (Homo sapiens, UniProt Q12884); experiment: Competitive binding assay against [111In]In-FAPI-46 in HT-1080.hFAP cells; design: expressed in transfected cells; host or cells: HT-1080.hFAP cells; settings: competition with [111In]In-FAPI-46 in HT-1080.hFAP cells, 37 °C, 1 h; unit inferred
T1 sequence (Q12884 1-760): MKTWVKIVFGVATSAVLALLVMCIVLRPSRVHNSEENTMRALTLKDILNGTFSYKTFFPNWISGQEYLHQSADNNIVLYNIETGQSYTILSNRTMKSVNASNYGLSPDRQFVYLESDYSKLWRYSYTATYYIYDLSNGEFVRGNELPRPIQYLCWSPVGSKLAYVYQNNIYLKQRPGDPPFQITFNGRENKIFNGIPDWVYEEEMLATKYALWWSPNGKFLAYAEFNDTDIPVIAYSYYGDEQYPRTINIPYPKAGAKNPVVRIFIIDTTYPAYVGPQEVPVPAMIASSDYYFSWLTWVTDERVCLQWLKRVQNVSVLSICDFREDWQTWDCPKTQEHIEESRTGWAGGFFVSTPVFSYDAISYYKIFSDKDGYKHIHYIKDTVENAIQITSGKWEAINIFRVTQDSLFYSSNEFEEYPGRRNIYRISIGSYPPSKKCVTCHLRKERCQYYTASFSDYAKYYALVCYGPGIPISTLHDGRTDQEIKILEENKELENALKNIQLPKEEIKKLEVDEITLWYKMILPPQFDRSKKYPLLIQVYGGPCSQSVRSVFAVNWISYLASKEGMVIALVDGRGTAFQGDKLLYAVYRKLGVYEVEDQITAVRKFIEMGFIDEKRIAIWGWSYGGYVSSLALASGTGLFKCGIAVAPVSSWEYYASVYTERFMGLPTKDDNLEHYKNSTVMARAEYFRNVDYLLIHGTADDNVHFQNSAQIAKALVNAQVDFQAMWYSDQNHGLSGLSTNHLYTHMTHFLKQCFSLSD
Description: The U-87 MG glioblastoma was cultured at 37 °C and 5% CO2 in Dulbecco's Modified Eagle Medium (DMEM) supplemented with 10 % (v/v) fetal calf serum. HT-1080.hFAP cells were kept in culture in DMEM medium supplemented with fetal bovine serum (10%, FBS) and antibiotic antimycotic (1%, AA) at 37 °C and 5% CO2. For passaging, cells were detached using Trypsin-EDTA 0.05% when reaching 90% confluence and re-seeded at a dilution of 1:4.
Competition binding experiments were conducted by incubation of the [^111In]In-FAPI-46 radioligand with increasing concentrations of eFAP compound in HT-1080.hFAP cells at 37 °C for 1 h. Cells were then washed three times with binding buffer and lysed. The cell-associated radioactivity was measured in a γ-counter. The IC50 values were calculated by fitting the data by non-linear regression using GraphPad Prism.

PREP = molecular target: T2, PREP (Homo sapiens, UniProt P48147); experiment: In vitro inhibition assay on PREP (Z-GP-AMC substrate); assay type: biochemical; settings: enzymatic assay; 20 µM substrate, 2 nM PREP; unit inferred
T2 sequence (P48147 1-710): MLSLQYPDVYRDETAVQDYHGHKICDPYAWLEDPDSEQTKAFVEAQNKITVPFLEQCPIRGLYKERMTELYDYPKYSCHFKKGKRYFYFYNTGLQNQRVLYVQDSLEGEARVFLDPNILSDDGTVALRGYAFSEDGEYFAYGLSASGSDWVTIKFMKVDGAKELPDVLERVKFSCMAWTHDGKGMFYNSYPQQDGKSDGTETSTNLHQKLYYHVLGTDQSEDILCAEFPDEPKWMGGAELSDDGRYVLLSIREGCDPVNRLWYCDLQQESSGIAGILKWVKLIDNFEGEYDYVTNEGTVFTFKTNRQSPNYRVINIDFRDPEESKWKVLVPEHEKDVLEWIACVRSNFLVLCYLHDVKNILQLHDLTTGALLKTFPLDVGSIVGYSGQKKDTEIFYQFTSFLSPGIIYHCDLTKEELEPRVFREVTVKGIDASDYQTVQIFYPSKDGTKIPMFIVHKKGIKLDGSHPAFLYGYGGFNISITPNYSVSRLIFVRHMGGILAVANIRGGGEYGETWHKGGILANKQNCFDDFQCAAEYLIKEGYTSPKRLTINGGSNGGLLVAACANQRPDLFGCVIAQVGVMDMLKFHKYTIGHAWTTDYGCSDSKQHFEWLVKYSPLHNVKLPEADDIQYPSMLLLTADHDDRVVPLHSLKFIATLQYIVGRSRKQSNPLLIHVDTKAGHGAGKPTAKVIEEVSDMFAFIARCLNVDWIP
Description: Enzymatic activity of PREP on the Z-GP-AMC substrate was measured at room temperature on a Hidex microplate reader by monitoring the fluorescence at an excitation wavelength of 360 nm and an emission wavelength of 465 nm. The reaction mixture contained 20 µM substrate, 2 nM PREP, assay buffer (50 mM Tris, 100 mM NaCl, 1 mM EDTA, pH 7.4) and tested compound (serial dilution from 10-6 to 10-12) in a total volume of 50 µL.

HT-1080.hFAP tumor = experiment: Biodistribution study in HT-1080.hFAP tumor bearing mice; assay type: in vivo; settings: indium-111 labelled
From the text: Six-week-old male Balb/c nu/nu-specific and opportunistic pathogen-tree (SOPF) mice were housed in individually ventilated cages, with 4 mice per cage. Upon arrival, mice were acclimated for 1 week, with access to food and water ad libitum. Mice were subcutaneously inoculated on the right shoulder with U-87 or HT-1080.hFAP cells (1 × 10^6 cells). Xenografts were allowed to grow until they reached an appropriate size at the start of the studies. All animal experiments were approved by the Animal Welfare Committee of the Erasmus MC and were conducted in agreement with institutional guidelines (license number: AVD101002017867).
Biodistribution studies were performed to determine tumor and organ uptake of the radiolabeled eFAP compounds. Animals (n = 4 for each time point and each compound) were injected intravenously with an average of 100 kBq/0.5 nmol at t=0. At 3 selected time points (1, 4 and 24 h) p.i. blood was collected via cardiac puncture under isoflurane/O2 anesthesia, after which the mice were sacrificed. The tumor and organs of interest (prostate, pancreas, spleen, gall bladder, liver, stomach, small intestine, coecum, colon, adrenals, kidney, lung, heart, salivary glands, muscle, bone, brain were excised, washed in PBS and blotted dry. The blood, tumor, and relevant organs were weighed and measured in a γ-counter. To determine the total injected radioactivity per animal, calibration curve with indium-111 and lutetium-177 were determined. The percentage of injected dose per gram (% ID/g) was determined for each tissue sample and corrected for both the injected volume and % ID present at the injection site (the tail).
Comparison of the biodistribution in selected organs of [^111In]In-FAPI-46 and [^111In]In-eFAP-6 in HT-1080.hFAP tumor bearing mice are given in Figure 8.

DPP4 = DPP4 (Homo sapiens, UniProt P27487); experiment: In vitro inhibition assay on DPP4 (Z-GP-pNA substrate); assay type: biochemical; settings: enzymatic assay; 20 µM Z-GP-pNA; unit inferred
[1] = intravenous, HT-1080.hFAP tumor bearing mice

Chain of DPP4 (P27487 39-766): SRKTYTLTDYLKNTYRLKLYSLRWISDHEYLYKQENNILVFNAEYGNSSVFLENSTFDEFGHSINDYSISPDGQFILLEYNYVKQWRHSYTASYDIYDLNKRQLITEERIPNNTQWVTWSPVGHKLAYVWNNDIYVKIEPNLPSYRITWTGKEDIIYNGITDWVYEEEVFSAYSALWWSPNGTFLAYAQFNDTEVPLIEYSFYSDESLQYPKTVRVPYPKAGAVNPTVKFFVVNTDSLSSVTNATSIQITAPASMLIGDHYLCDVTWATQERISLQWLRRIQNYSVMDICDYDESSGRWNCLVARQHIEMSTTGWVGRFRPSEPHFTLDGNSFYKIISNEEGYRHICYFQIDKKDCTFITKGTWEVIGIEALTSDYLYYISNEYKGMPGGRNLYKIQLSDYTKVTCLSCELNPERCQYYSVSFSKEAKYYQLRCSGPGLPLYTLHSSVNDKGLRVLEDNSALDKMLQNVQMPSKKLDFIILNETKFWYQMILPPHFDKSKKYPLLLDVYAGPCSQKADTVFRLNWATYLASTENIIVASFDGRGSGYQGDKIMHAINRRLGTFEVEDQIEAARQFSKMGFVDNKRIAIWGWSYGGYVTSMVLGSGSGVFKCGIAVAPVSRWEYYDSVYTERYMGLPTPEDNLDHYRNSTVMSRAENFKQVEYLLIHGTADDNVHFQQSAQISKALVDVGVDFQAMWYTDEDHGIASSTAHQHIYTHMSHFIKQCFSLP

N#C[C@@H]1CC(F)(F)CN1C(=O)CNC(=O)c1ccnc2c(OCCCNC(=O)CN3CCN(CC(=O)O)CCN(CC(=O)O)CCN(CC(=O)O)CC3)cccc12 [eFAP-6, (S)-2,2',2"-(10-(2-((3-((4-((2-(2-Cyano-4,4-difluoropyrrolidin-1-yl)-2-oxoethyl)carbamoyl)quinolin-8-yl)oxy)propyl)amino)-2-oxoethyl)-1,4,7,10-tetraazacyclododecane-1,4,7-triyl)triacetic acid]
IC50 (FAP): 0.66 nM | IC50 (PREP): 108 ± 42 nM | tumor targeting performance (HT-1080.hFAP tumor; compared with the clinical reference): comparable with that of FAPI-46 | background uptake in healthy organs (HT-1080.hFAP tumor; [1]): low background uptake in healthy organs | tumor uptake (HT-1080.hFAP tumor; [1]): high and rapid tumor uptake | clearance from the body (HT-1080.hFAP tumor; intravenous, mice): rapid clearance from the body | IC50 (DPP4): > 10000 nM
